Measurements published in patent US11474097B2, “Method of identifying a compound which affects the multienzyme metabolic assembly of glucose metabolism and its association with cell cycle progression in cancer cells” (UNIVERSITY OF MARYLAND, BALTIMORE COUNTY, priority 2018, dated 2022).
Where a name gives a salt, the structure may show the parent alone.

Assays:
Type in all cases: cell-based, human
[1] = tested on: PFK1-mEGFP clustering in HeLa-T-PFK1G cells; assay: qHTS PFK1-mEGFP clustering assay with the LOKI library; conditions: for Curve class: LOKI screen; for PFK1-mEGFP clustering when the assay was repeated: repeat of the LOKI assay, FIGS. 8A-8C
Protocol: HeLa-T-PFK1G cells were plated in 1536-well black, clear bottom, low base microwell plates (Aurora Microplates, Inc.) at a density of 400 cells/well in DMEM supplemented with 10% dialyzed FBS, 1% Pen-Strep, and 1 μg/mL doxycycline. The cells were incubated at 37° C., 5% CO2, and 95% humidity for 16 hours. A qHTS assay was scaled to 4 μL volumes in 1536-well format in a semi-automated manner.
Second, the qHTS assay was carried out with the LOKI library (10 mM, 11-point 1:3 intra-plate titration). Again, 23 nL of compounds were transferred by a pintool (Kalypsys) in the final concentration range of 974 pM to 57.5 μM along with DMSO. […] The cells were then incubated overnight with small molecules. Approximately 24 hours later, the cells were fixed with 3.5% paraformaldehyde and nuclei were stained using a 1:1000 dilution of Hoechst dye for ˜20 minutes. Cells were washed and imaged with an INCell Analyzer 2000 or INCell Analyzer 2200 (GE Healthcare Life Sciences) as described above.
Images were processed in the GE Workstation software and analyzed with a multitarget analysis of fluorescence. Top-hat segmentation of the DAPI channel was used to identify nuclei with a minimum area of 100 μm^2 and sensitivity of 40 settings. Multiscale top-hat segmentation of the FITC channel was used to identify cells with a characteristic area of 200 μm^2 and sensitivity of 70 settings. This allowed for the identification of fluorescent cells from the background or dead cells. Following cell segmentation, the same FITC channel was analyzed with multiscale top-hat segmentation to identify PFK1-mEGFP clusters with a size range of 0.2-2 μm^2, number scales of 1, process parameters of 1 pixel, sensitivity of 40, and inclusions in the cytoplasm. A filter of object area, that is, the area of PFK1-mEGFP clusters, below 30 μm^2 and an advanced sensitivity range of 1.5, was also applied. A decision tree thresholding was developed to identify cells with PFK1 clusters with three nodes. The start node required a cell intensity above 110 GL, the second node required a PFK1 cluster count above 1, and the third node required the total area of the PFK1 cluster above 5 μm^2. Ultimately, this allowed for the identification of cluster-positive cells over non-clustering cells. The total number of cells with a total area of PFK1 clusters above 5 μm^2 (most stringent parameter) and the total number of cells with any PFK1 clusters were calculated with the above algorithm and normalized by plate to the 57.5 μM kenpaullone intra-plate control as previously described (Inglese et al., 2006). Assay effectiveness including S:N (the signal to noise ratio) and Z′ (the index of assay quality (Zhang et al., 1999)) were calculated for both parameters using the same respective control. Both parameters were normalized to the average signal of DMSO (vehicle)-treated wells as a zero percent neutral control and the average signal of 57.5 μM kenpaullone-treated wells as maximum PFK1-mEGFP clustering. Cell count based on the number of nuclei was used as a parameter of cytotoxicity, which was also normalized to the average signal of DMSO-treated wells as a zero percent neutral control and the average signal of 57.5 μM […]-treated wells as maximum PFK1-mEGFP clustering. The respective normalized data from each assay plate was corrected using DMSO only treated assay plates at the beginning and end of each library screen. In-house software (http://ncgc.nih.gov/pub/openhts/curvefit/) was used to fit the resulting intra-plate titration data to the standard Hill equation and concentration-response curves were classified by a titration curve as previously described (Southall et al.). Curve fits assignments of class 1.1, 1.2, 2.1 and 2.2s were considered active (i.e., promotion of the PFK1-mEGFP clusters) and visually confirmed.

[2] = tested on: PFK1-mEGFP clustering in HeLa-T-PFK1G cells; assay: High-resolution fluorescence microscopy of PFK1-mEGFP clustering
Protocol: A day before imaging, HeLa-T-PFK1G cells in RPMI1640 supplemented with 10% dialyzed FBS, 200 ug/ml G418 sulfate and 100 ug/ml hygromycin B, were plated in the presence of 1 μg/mL doxycycline to induce the expression of PFK1-mEGFP. On the day of imaging, the cells were washed three times with an imaging solution (20 mM HEPES (pH 7.4), 135 mM NaCl, 5 mM KCl, 1 mM MgCl2, 1.8 mM CaCl2) and 5.6 mM glucose) and allowed to adjust to ambient temperature for ˜45-60 minutes prior to small molecule treatments. Meanwhile, transiently transfected HeLa cells were imaged after being washed with the imaging solution after ˜24 hours following transfection. The cells were then treated with small molecules and incubated at 37° C. for the given time. All samples were imaged at ambient temperature (˜25° C.) with a 60×1.45 NA objective lens (Nikon CFI Plan Apo TIRF) using a Photometrics CoolSnap EZ monochrome CCD camera on a Nikon Eclipse Ti-inverted C2 confocal microscope.
Epifluorescence imaging was carried out using a set of Z488/10-FC cleanup, HC TIRF Dichroic and 525/50-HC emission filter from Chroma Technology. Images were acquired using NIS Elements (Nikon) and images were analyzed using an ImageJ freeware (National Institutes of Health).
Next, the 8 compounds were assessed for their ability to induce PFK1-mEGFP clustering under high-resolution fluorescence microscopy. HeLa-T-PFK1G cells were treated with 57.5 μM for 5 hours (FIGS. 2A and 2B) and 10 μM for 25 hours (FIGS. 2C and 2D). […] Quantitatively, SU9516 induced medium- and large-sized PFK1-mEGFP clustering in 26.6±12% of the cells at 57.5 μM for 5 hours, and in 40.0±16% of cells at 10 μM for 25 hours (see, e.g., FIGS. 2B and 2D, respectively).

[3] = tested on: PFK1-mEGFP clustering in HeLa-T-PFK1G cells; assay: Resveratrol-induced clustering of PFK1-mEGFP (positive control, assay development); conditions: 200-250 μM, three hours
Protocol: Cells were treated with 200-250 μM resveratrol for three hours. Scale bar, 10 μm.

[4] = tested on: cell cycle progression of HeLa-T-PFK1G cells; assay: Cell cycle analysis by propidium iodide staining and flow cytometry; conditions: 10 μM, 24 hours
Protocol: FIG. 7A illustrates the effect of SU9516 on the cell cycle progression of HeLa-T-PFK1G cells. Cells received no small molecules or were treated with DMSO or 10 uM SU9516 and incubated for 24 hours. Then, cells were assessed for cell cycle progression by propidium iodide staining. The changes of the average percentage of cells in each cell cycle following incubation with an indicated compound are shown. Error bars represent the standard deviations of at least three trials and statistical significance was determined using student's two-tailed t test. HeLa-T-PFK1G cells were plated in 6-well plates for a confluency of 70-90% in RPMI1640 supplemented with 10% dialyzed FBS in the presence of 1 ug/mL doxycycline. The following day, the cells were treated with SU9516 or DMSO for 24 hours. The cells were then harvested and analyzed for the cell cycle progression as previously described (Crowley et al., 2016). Briefly, hundreds of thousands of cells were removed from 6-well plates using trypsin, washed with 1×PBS (pH 7.4), resuspended in ice-cold PBS and fixed with ice-cold methanol for 20 minutes at 4° C. The cells were then washed and resuspended in the cell cycle buffer, which contains 30 ug/mL propidium iodide and 100 μg/mL RNase A (Thermo Cat # EN0531) in 1×PBS (pH 7.4). After being incubated for at least 45 minutes, flow cytometry was performed with a CyAn ADP (Beckman Coulter) running Summit V 4.00, equipped with a 488 nm laser line and 530/40 and 613/20 emission filters. Using FlowJo (FlowJo, LLC), cell populations were gated based on the expression of PFK1-mEGFP in cells as well as their size and granularity. The cell cycle progression was then assessed by the Dean-Jett-Fox analysis using Cell Cycle platform available in FlowJo (Fox, 1980).

[5] = tested on: transiently expressed PFK1-mEGFP in HeLa cells; assay: PFK1-mEGFP clustering in transiently transfected wild-type HeLa cells; conditions: 57.5 μM, 5 hours
Protocol: A day before transient transfection, wild-type HeLa cells were plated on either glass-bottomed 35 mm petri dishes (MatTek) or 8-well chambers (LabTek) in RPMI 1640 supplemented with 10% dialyzed FBS without antibiotics. The following day, HeLa cells were transfected with PFK1-mEGFP using Lipofectamine 2000 (Invitrogen Cat#11668019) in Opti-MEM I (ThermoFisher Cat#11058-021) and allowed to incubate in a HeraCell CO2 incubator (37° C., 5% CO2, and 95% humidity). Approximately 5 hours later, the medium was exchanged for fresh growth medium and incubated overnight in the CO2 incubator.
A day before imaging, HeLa-T-PFK1G cells in RPMI1640 supplemented with 10% dialyzed FBS, 200 ug/ml G418 sulfate and 100 ug/ml hygromycin B, were plated in the presence of 1 μg/mL doxycycline to induce the expression of PFK1-mEGFP. On the day of imaging, the cells were washed three times with an imaging solution (20 mM HEPES (pH 7.4), 135 mM NaCl, 5 mM KCl, 1 mM MgCl2, 1.8 mM CaCl2) and 5.6 mM glucose) and allowed to adjust to ambient temperature for ˜45-60 minutes prior to small molecule treatments. […]
As a control, PFK1-mEGFP was transiently transfected into wild-type HeLa cells and treated with SU9516. After 5 hours of treatment with 57.5 μM of SU9516, the promotion of medium- and large-sized clusters from small-sized clusters at single-cell levels were monitored (FIG. 4).

[6] = Table 4, inhibitors of the off-targets of SU9516
[7] = Table 5, CDK inhibitors that did not induce PFK1-mEGFP clustering
[8] = 10 μM, 24 hr, HeLa-T-PFK1G cells

CC(O)(C#Cc1ccc2c(c1)N(c1nc(N)ncc1Cl)CC2)c1nccs1 (stereo not drawn) [NCGC00346747-02]
Curve class ([1]; PFK1-mEGFP clustering vs log compound concentration, Table 3 hits): 2.1

CC(=O)NCC(=O)N1[C@H]2CC[C@H]1c1cc(Nc3ncc(C(F)(F)F)c(NC4CCC4)n3)ccc12 [NCGC00346652-01, PF-03814735]
Curve class [1, 6]: 2.1
PFK1-mEGFP clustering when the assay was repeated [1]: induced PFK1-mEGFP clustering

CN1CCC[C@@H]1CCO[C@](C)(c1ccccc1)c1ccc(Cl)cc1 [clemastine fumarate, Clemastine fumarate]
cell morphology observed ([2]; 57.5 μM, 6 hr, HeLa-T-PFK1G cells): protein localization and cell death

CC(=O)c1c(C)c2cnc(Nc3ccc(N4CCNCC4)cn3)nc2n(C2CCCC2)c1=O [NCGC00263129-01, Palbociclib]
Curve class [1, 6]: 2.1

Cn1c(=O)c(F)c(Nc2ccc(I)cc2F)c2c(=O)n(C[C@@H](O)CO)cnc21 [NCGC00263187-01]
Curve class [1, 7]: −2.4

CC(C)c1cnn2c(NCc3ccccc3)cc(NCCCCCCN)nc12 [NCGC00346553-01, BS-181]
Curve class [1, 6]: 2.1
PFK1-mEGFP clustering when the assay was repeated [1]: did not promote PFK1-mEGFP clustering

Clc1ccc(C(c2ccc(Cl)cc2)n2cc[n+](CC(OCc3ccc(Cl)cc3Cl)c3ccc(Cl)cc3Cl)c2)cc1 (stereo not drawn) [calmidazolium chloride, Calmidazolium chloride]
cell morphology observed [2, 8]: vacuole-type artifact

CN1CCC(c2c(O)cc(O)c3c(=O)cc(-c4ccccc4Cl)oc23)C(O)C1 (stereo in doubt) [NCGC00250401-01]
Curve class [1, 7]: 4

CC(=O)OC1C(C)OC(Oc2c(-c3ccc(O)cc3)oc3cc(O)cc(O)c3c2=O)C(O)C1OC(C)=O (stereo not drawn) [NCGC00346893-01, SL-0101-1]
Curve class [1, 6]: 2.1
Curve class [1, 7]: 4
PFK1-mEGFP clustering when the assay was repeated [1]: did not promote PFK1-mEGFP clustering

O=C(NC1CCNCC1)c1[nH]ncc1NC(=O)c1c(Cl)cccc1Cl [NCGC00263091-01]
Curve class [1, 7]: −1.3

C=CCc1cccc(/C=N/NC(=O)CN2CCN(Cc3ccccc3)CC2)c1O [PAC-1]
cell morphology observed [2, 8]: vacuole-type artifact

Oc1ccc(C=Cc2cc(O)cc(O)c2)cc1 [resveratrol]
percent of cells exhibiting medium- or large-sized clusters in the cytoplasm [3]: 80-90%

CCc1ccc(NC(=O)c2[nH]c(C)c(C(C)=O)c2C)cc1S(=O)(=O)Nc1cccc(C#N)c1 [NCGC00345632-01]
Curve class [1, 7]: −2.1

COc1ccc2c(c1)/C(=C/c1cnc[nH]1)C(=O)N2 [SU9516, 3-[1-(3H-Imidazol-4-yl)-meth-(Z)-ylidene]-5-methoxy-1,3-dihydro-indol-2-one]
population of cells in the G2 phase ([4]; 18.9%±[…] without compound): 45.6%±1.9%
population of cells in the S phase ([4]; 21.5%±7.2% without compound): 4.2%±2.4%
population of cells in the G1 phase ([4]; 54.7%±5.7% without compound, no significant change): 48.4%±2.7%
percent of cells with medium- and large-sized PFK1-mEGFP clustering ([2]; 10 μM for 25 hours): 40.0±16%
percent of cells with medium- and large-sized PFK1-mEGFP clustering ([2]; 57.5 μM for 5 hours): 26.6±12%
ability to induce PFK1-mEGFP clustering under high-resolution fluorescence microscopy ([2]; 57.5 μM for 5 hours and 10 μM for 25 hours): capable of inducing PFK1-mEGFP clusters
EC50 ([2]; Homo sapiens, titration for 25 hours, HeLa-T-PFK1G cells, read-out: EC50 with respect to PFK1-mEGFP clustering): 6.8 µM
promotion of medium- and large-sized PFK1-mEGFP clusters [5]: capable of promoting PFK1-mEGFP clusters

Cn1cnc2c(NCc3ccccc3)nc(NCCO)nc21 [NCGC00015763-01]
Curve class [1, 7]: 4

CCS(=O)(=O)Nc1ccc2c(c1)/C(=C(/Nc1ccc(CN3CCCCC3)cc1)c1ccccc1)C(=O)N2 [NCGC00346542-01, Hesperadin]
Curve class [1, 6]: 2.1
